Numbered stars: 1 amine (or outer) side, 2 acyl side, 3 side chain; on linkers, the order of the positions; unused ones are H or OH. Bridge positions count the residues as written; N and C are the ends. Square brackets hold non-standard residues; d marks the D form. Peptide text beside a SMILES is read from it. Tartaroyl(2R,3R-(OAc)2) = CC(=O)O[C@@H](C(=O)[*:1])[C@@H](OC(C)=O)C(=O)[*:2]; Phe(4-CF3) = N[C@@H](Cc1ccc(C(F)(F)F)cc1)C(=O)O; Phe(4-COOH) = N[C@@H](Cc1ccc(C(=O)O)cc1)C(=O)O; Bip = N[C@@H](Cc1ccc(-c2ccccc2)cc1)C(=O)O; dBip = N[C@H](Cc1ccc(-c2ccccc2)cc1)C(=O)O; dPhe(4-NH2) = Nc1ccc(C[C@@H](N)C(=O)O)cc1; Phe(4-Br) = N[C@@H](Cc1ccc(Br)cc1)C(=O)O; dPhe(4-Br) = N[C@H](Cc1ccc(Br)cc1)C(=O)O; Phe(4-NH2) = Nc1ccc(C[C@H](N)C(=O)O)cc1; His(τ-Me) = Cn1cnc(C[C@H](N)C(=O)O)c1; d(hPhe) = N[C@H](CCc1ccccc1)C(=O)O; Igl = N[C@H](C(=O)O)C1Cc2ccccc2C1; dNMeF = CN[C@H](Cc1ccccc1)C(=O)O; hPhe = N[C@@H](CCc1ccccc1)C(=O)O; d3Pal = N[C@H](Cc1cccnc1)C(=O)O; 2Thi = N[C@@H](Cc1cccs1)C(=O)O; d2Thi = N[C@H](Cc1cccs1)C(=O)O; Suc = O=C(CCC(=O)[*:2])[*:1]; GABA = NCCCC(=O)O A value given as a limit tells only on which side of the number the result lay.

For one experiment, the target named is T1, TNFα / TNFα receptor (TNFα R1/Fc) (Homo sapiens, UniProt P01375).
T1 construct: purchased R&D Systems
T1 sequence (P01375 77-233 limits assumed, species assumed): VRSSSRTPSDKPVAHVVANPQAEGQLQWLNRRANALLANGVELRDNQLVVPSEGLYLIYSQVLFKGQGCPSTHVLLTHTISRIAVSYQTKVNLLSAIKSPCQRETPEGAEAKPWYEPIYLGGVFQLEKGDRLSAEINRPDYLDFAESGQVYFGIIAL
As to the kind of experiment: Inhibition of binding of TNFα to the TNFα receptor (plate ELISA competition). The settings on record: Activity (IC50, inhibition of TNFα binding to TNFα R1/Fc), Table 2. The method in brief:
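Plates were coated with TNFα at 15 nM. Test compound and 8.33 nM receptor-Fc (PBST, 2% DMSO) were first mixed in solution for 30 min at room temperature, then transferred to the plates for another 30 min. Competition was read by absorbance at 450 nm after HRP anti-human IgG Fc detection with TMB.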
For orientation: ELISA stands for enzyme-linked immunosorbent assay.
Consider `O=C1COc2ccc(cc2)C[C@@H](C(=O)O)NC(=O)[C@H](CCc2ccccc2)NC(=O)[C@@H](Cc2ccc(-c3ccncc3)cc2)NC(=O)[C@H](Cc2cccs2)N1` [Compound 658], for which the IC50 is less than 10 µM.

With `O=C1COc2ccc(cc2)C[C@H](C(=O)N[C@H](Cc2ccccc2)C(=O)O)NC(=O)[C@@H](CCc2ccccc2)NC(=O)[C@H](Cc2ccc(-c3ccccc3)cc2)NC(=O)[C@@H](Cc2cccs2)N1` [Compound 562], the IC50 was less than 10 µM.

Still in this experiment, the particulars now being: Table 2; read-out: Activity (IC50, inhibition of TNFα binding to TNFα R1/Fc).
As to `COC(=O)[C@@H](CC(=O)O)NC(=O)[C@@H]1Cc2ccc(cc2)NC(=O)CCC(=O)N[C@H](CCc2ccccc2)C(=O)N[C@@H](Cc2ccc(-c3ccccc3)cc2)C(=O)N[C@H](Cc2ccccc2)C(=O)N1` [Compound 351] ([d(hPhe)][Bip][dF][Phe(4-NH2)][dD]-OMe; linker N-4 via Suc), the IC50 lay within 10 to 30 µM. Same read-out and setting: next, `CC(=O)O[C@H]1C(=O)Nc2ccc(cc2)C[C@@H](C(=O)N[C@@H](Cc2ccccc2)C(=O)O)NC(=O)[C@H](CCc2ccccc2)NC(=O)[C@@H](Cc2ccc(-c3ccccc3)cc2)NC(=O)[C@H](Cc2cccs2)NC(=O)[C@@H]1OC(C)=O` [Compound 412] ([2Thi][dBip][hPhe][Phe(4-NH2)]F-OH; linker N-4 via Tartaroyl(2R,3R-(OAc)2)): less than 10 µM; `CC(=O)O[C@H]1C(=O)Nc2ccc(cc2)C[C@H](C(=O)O)NC(=O)[C@@H](Cc2ccccc2)NC(=O)[C@H](Cc2ccc(Br)cc2)NC(=O)[C@@H](Cc2ccccc2)NC(=O)[C@@H]1OC(C)=O` [Compound 231] ([dF][Phe(4-Br)][dF][dPhe(4-NH2)]-OH; linker N-4 via Tartaroyl(2R,3R-(OAc)2)): more than 100 µM; `O=C1COc2ccc(cc2)C[C@H](C(=O)O)NC(=O)[C@H](Cc2ccccc2)NC(=O)[C@@H](Cc2ccc(-c3ccccc3)cc2)NC(=O)[C@H](Cc2cccs2)N1` [Compound 675]: more than 100 µM.

Consider `O=C1N[C@H](Cc2ccccc2)C(=O)N[C@@H](C(=O)O)Cc2ccc(cc2)NC(=O)[C@H](O)[C@@H](O)C(=O)N[C@H](Cc2cccs2)C(=O)N[C@H]1Cc1ccc(-c2ccccc2)cc1` [Compound 184], for which the IC50 is more than 100 µM. As to `CC(=O)Nc1ccc(C[C@H](NC(=O)[C@@H]2Cc3ccc(cc3)NC(=O)CCC(=O)N[C@H](CCc3ccccc3)C(=O)N[C@@H](Cc3ccc(-c4ccccc4)cc3)C(=O)N[C@H](Cc3ccccc3)C(=O)N2)C(=O)O)cc1` [Compound 528] ([d(hPhe)][Bip][dF][Phe(4-NH2)][Phe(4-NH2)](Ac)-OH; linker N-4 via Suc), the IC50 is less than 10 µM. The same measure, in the same setting: next, `O=C1COc2ccc(cc2)C[C@@H](C(=O)N[C@H](Cc2ccccc2)C(=O)O)NC(=O)[C@H](Cc2ccccc2)NC(=O)[C@@H](Cc2ccc(-c3ccccc3)cc2)NC(=O)[C@H](Cc2cccs2)N1` [Compound 227]: less than 10 µM; `O=C1N[C@H](CCc2ccccc2)C(=O)N[C@@H](C(=O)O)Cc2ccc(cc2)NC(=O)[C@H](O)[C@@H](O)C(=O)N[C@H](Cc2cccs2)C(=O)N[C@H]1Cc1ccc(Cl)cc1Cl` [Compound 240]: 10 to 30 µM. With `O=C1COc2ccc(cc2)C[C@@H](C(=O)N2CCC(C(=O)O)CC2)NC(=O)[C@@H](CCc2ccccc2)NC(=O)[C@H](Cc2ccc(-c3ccccc3)cc2)NC(=O)[C@@H](Cc2cccs2)N1` [Compound 306], the IC50 is less than 10 µM. Consider `O=C1CCC(=O)N[C@H](Cc2ccc(O)cc2)C(=O)N[C@@H](Cc2ccc(-c3ccccc3)cc2)C(=O)N[C@H](Cc2ccccc2)C(=O)N[C@H](C(=O)O)Cc2ccc(cc2)N1` [Compound 121] ([dY][Bip][dF][Phe(4-NH2)]-OH; linker N-4 via Suc), for which the IC50 was more than 100 µM. On to `O=C1COc2ccc(cc2)C[C@@H](C(=O)O)NC(=O)[C@@H](CCc2ccccc2)NC(=O)[C@H](Cc2ccc(-c3ccccc3)cc2)NC(=O)[C@@H](Cc2ccc(F)cc2)N1` [Compound 519], for which the IC50 is 10 to 30 µM. Consider `O=C1CCC(=O)N[C@H](Cc2cccnc2)C(=O)N[C@@H](Cc2ccc(-c3ccccc3)cc2)C(=O)N[C@H](Cc2ccccc2)C(=O)N[C@H](C(=O)O)Cc2ccc(cc2)N1` [Compound 126] ([d3Pal][Bip][dF][Phe(4-NH2)]-OH; linker N-4 via Suc), for which the IC50 is more than 100 µM. Consider `O=C1COc2ccc(cc2)C[C@@H](C(=O)O)NC(=O)[C@H](CCc2ccccc2)NC(=O)[C@@H](Cc2ccc(-c3ccccc3)cc2)NC(=O)[C@H](Cc2ccc(-c3ccccc3)cc2)N1` [Compound 510], for which the IC50 was less than 10 µM. Turning to `O=C1COc2ccc(cc2)C[C@@H](C(=O)O)NC(=O)[C@H](Cc2ccccc2)NC(=O)[C@@H](Cc2ccc(F)cc2)NC(=O)[C@H](Cc2cccs2)N1` [Compound 355], the IC50 was more than 100 µM. Same read-out and setting: with `NC(=O)C[C@@H]1NC(=O)COc2ccc(cc2)C[C@@H](C(=O)O)NC(=O)[C@H](Cc2ccccc2)NC(=O)[C@@H](Cc2ccc(-c3ccccc3)cc2)NC1=O` [Compound 488] the figure was more than 100 µM; with `CC(=O)N[C@H]1CC(=O)N[C@H](Cc2cccs2)C(=O)N[C@@H](Cc2ccc(-c3ccccc3)cc2)C(=O)N[C@H](Cc2ccccc2)C(=O)N[C@H](C(=O)O)Cc2ccc(cc2)NC1=O` [Compound 377], more than 100 µM. Same read-out and setting: with `O=C1COc2ccc(cc2)C[C@@H](C(=O)N[C@H](Cc2ccccc2)C(=O)O)NC(=O)[C@H](CCc2ccccc2)NC(=O)[C@@H](Cc2ccc(-c3ccccc3)cc2)NC(=O)[C@H](Cc2ccc(-c3ccncc3)cc2)N1` [Compound 582] the figure was less than 10 µM; with `CN1C(=O)[C@H](Cc2ccc(-c3ccccc3)cc2)NC(=O)[C@@H](Cc2cccs2)NC(=O)CCC(=O)Nc2ccc(cc2)C[C@@H](C(=O)O)NC(=O)[C@H]1Cc1ccccc1` [Compound 57] ([d2Thi][Bip][dNMeF][Phe(4-NH2)]-OH; linker N-4 via Suc), more than 100 µM; with `O=C(O)[C@H](Cc1ccccc1)NC(=O)[C@H]1Cc2ccc(cc2)NC(=O)[C@H](O)[C@@H](O)C(=O)N[C@@H](Cc2cccs2)C(=O)N[C@H](Cc2ccc(-c3ccccc3)cc2)C(=O)N[C@@H](CCc2ccccc2)C(=O)N1` [Compound 432], less than 10 µM. Take `CC(=O)O[C@H]1C(=O)Nc2ccc(cc2)C[C@@H](C(=O)N[C@@H](Cc2ccccc2)C(=O)O)NC(=O)[C@H](Cc2ccccc2)NC(=O)[C@@H](Cc2ccc(Br)cc2)NC(=O)[C@H](Cc2cccs2)NC(=O)[C@@H]1OC(C)=O` [Compound 418] ([2Thi][dPhe(4-Br)]F[Phe(4-NH2)]F-OH; linker N-4 via Tartaroyl(2R,3R-(OAc)2)): the IC50 was more than 100 µM. `N=C(N)NCCC[C@@H]1NC(=O)[C@H](Cc2ccc(-c3ccccc3)cc2)NC(=O)[C@@H](Cc2cccs2)NC(=O)CCC(=O)Nc2ccc(cc2)C[C@@H](C(=O)O)NC1=O` [Compound 72] ([d2Thi][Bip]R[Phe(4-NH2)]-OH; linker N-4 via Suc): the IC50 was more than 100 µM. On the same count and under the same terms, with `O=C1COc2ccc(cc2)C[C@@H](C(=O)O)NC(=O)[C@@H](Cc2ccccc2)NC(=O)[C@H](Cc2ccc(C(F)(F)F)cc2)NC(=O)[C@@H](CCc2ccccc2)N1` [Compound 216] the figure was more than 100 µM; with `O=C(O)CCNC(=O)[C@@H]1Cc2ccc(cc2)OCC(=O)N[C@@H](Cc2ccc(-c3ccncc3)cc2)C(=O)N[C@H](Cc2ccc(-c3ccccc3)cc2)C(=O)N[C@@H](CCc2ccccc2)C(=O)N1` [Compound 579], less than 10 µM. On the same count and under the same terms, with `O=C1CCCNC(=O)c2ccc(cc2)C[C@@H](C(=O)O)NC(=O)[C@@H](Cc2ccccc2)NC(=O)[C@H](Cc2ccc(-c3ccccc3)cc2)NC(=O)[C@@H](CCc2ccccc2)N1` [Compound 249] ([GABA][d(hPhe)][Bip][dF][Phe(4-COOH)]-OH; lactam N-5) the figure was more than 100 µM; with `O=C1CCC(=O)N[C@H](Cc2cccs2)C(=O)N[C@@H](C2Cc3ccccc3C2)C(=O)N[C@H](Cc2ccccc2)C(=O)N[C@H](C(=O)O)Cc2ccc(cc2)N1` [Compound 99] ([d2Thi][Igl][dF][Phe(4-NH2)]-OH; linker N-4 via Suc), more than 100 µM. `O=C1CCC(=O)N[C@H](CCc2ccccc2)C(=O)N[C@@H](Cc2ccc(-c3ccccc3)cc2)C(=O)N[C@H](Cc2ccccc2)C(=O)Nc2ccc(cc2)C[C@@H](C(=O)O)N1` [Compound 550]: the IC50 lay within 30 to 100 µM.

For the compound `O=C1COc2ccc(cc2)C[C@@H](C(=O)O)NC(=O)[C@H](Cc2c[nH]c3ccccc23)NC(=O)[C@@H](Cc2ccc(-c3ccccc3)cc2)NC(=O)[C@H](Cc2cccs2)N1` [Compound 640], the IC50 is less than 10 µM. With `Cn1cnc(C[C@@H]2NC(=O)[C@@H](Cc3cccs3)NC(=O)CCC(=O)Nc3ccc(cc3)C[C@@H](C(=O)O)NC(=O)[C@@H](Cc3ccccc3)NC2=O)c1` [Compound 100] ([d2Thi][His(τ-Me)][dF][Phe(4-NH2)]-OH; linker N-4 via Suc), the IC50 is more than 100 µM.

With `O=C(O)CCNC(=O)[C@@H]1Cc2ccc(cc2)OCC(=O)N[C@@H](Cc2cccs2)C(=O)N[C@H](Cc2ccc(-c3ccccc3)cc2)C(=O)N[C@@H](Cc2ccc(O)cc2)C(=O)N1` [Compound 564], the IC50 was less than 10 µM. `O=C1COc2ccc(cc2)C[C@@H](C(=O)NCC2(C(=O)O)CC2)NC(=O)[C@@H](CCc2ccccc2)NC(=O)[C@H](Cc2ccc(-c3ccccc3)cc2)NC(=O)[C@@H](Cc2cccs2)N1` [Compound 404]: the IC50 was less than 10 µM. The same measure, in the same setting: with `COC(=O)[C@@H]1Cc2ccc(cc2)NC(=O)CCC(=O)N[C@H](CC(=O)O)C(=O)N[C@@H](Cc2ccc(C(F)(F)F)cc2)C(=O)N[C@H](Cc2ccccc2)C(=O)N1` [Compound 206] ([dD][Phe(4-CF3)][dF][Phe(4-NH2)]-OMe; linker N-4 via Suc) the figure was more than 100 µM; with `NCCCC[C@H](NC(=O)[C@@H]1Cc2ccc(cc2)NC(=O)CCC(=O)N[C@H](Cc2cccs2)C(=O)N[C@@H](Cc2ccc(-c3ccccc3)cc2)C(=O)N[C@H](Cc2ccccc2)C(=O)N1)C(=O)O` [Compound 28] ([d2Thi][Bip][dF][Phe(4-NH2)]K-OH; linker N-4 via Suc), less than 10 µM.

The values are drawn from patent publication US8338565B2, “Macrocyclic compounds for inhibition of tumor necrosis factor alpha” (Ensemble Therapeutics Corporation, priority 2008, dated 2012).
